The term mortality denotes the share of the test organisms that died.

The text below walks through data of US12152024B2, “Pesticidally active heterocyclic derivatives with sulphur and hydroxylamine substituents” (SYNGENTA PARTICIPATIONS AG, priority 2016, dated 2024).

Holding throughout (format): in vivo
Data set [1] relates to Myzus persicae (Green Peach Aphid). The data set is described as follows: Activity against Myzus persicae (green peach aphid): feeding/contact activity. The conditions noted are these: for mortality at 200 ppm: Myzus persicae, 144 h, application rate 200 ppm, feeding/contact, mixed ages, 6 days after infestation. How it is done: Sunflower leaf discs were placed onto agar in a 24-well microtiter plate and sprayed with aqueous test solutions prepared from 10′000 ppm DMSO stock solutions. After drying, the leaf discs were infested with an aphid population of mixed ages. The samples were assessed for mortality 6 days after infestation.

For data set [2], the system named is Spodoptera littoralis (Egyptian Cotton Leaf Worm). The data set is described as follows: Activity against Spodoptera littoralis (Egyptian cotton leaf worm), cotton leaf discs sprayed. As to conditions: for percent control (mortality, anti-feedant effect or growth inhibition) at 200 ppm: foliar, 72 h, application rate 200 ppm, L1 larvae, 3 days after infestation, read-out: control (mortality, anti-feeding effect or growth inhibition). On the procedure:
Cotton leaf discs were placed onto agar in 24-well microtiter plates and sprayed with aqueous test solutions prepared from 10′000 ppm DMSO stock solutions. After drying the leaf discs were infested with five L1 larvae. The samples were assessed for mortality, anti-feeding effect, and growth inhibition in comparison to untreated samples 3 days after infestation. Control of Spodoptera littoralis by a test sample is given when at least one of the categories mortality, anti-feedant effect, and growth inhibition is higher than the untreated sample.

Data set [3] concerns Plutella xylostella (Diamond Back Moth). The data set is described as follows: Activity against Plutella xylostella (diamond back moth), artificial diet. As to conditions: for percent effect (mortality or growth inhibition) at 200 ppm: 120 h, application rate 200 ppm, L2 larvae, 5 days after infestation, read-out: effect in at least one of the two categories (mortality or growth inhibition). How it is done: 24-well microtiter plates with artificial diet were treated with aqueous test solutions prepared from 10′000 ppm DMSO stock solutions by pipetting. After drying, the plates were infested with L2 larvae (10 to 15 per well). The samples were assessed for mortality and growth inhibition in comparison to untreated samples 5 days after infestation.

The subject of data set [4] is Diabrotica balteata (corn root worm). Description: Activity against Diabrotica balteata (corn root worm), maize sprouts sprayed. As to conditions: for percent effect (mortality or growth inhibition) at 200 ppm: 96 h, application rate 200 ppm, L2 larvae, 4 days after infestation, read-out: effect in at least one of the two categories (mortality or growth inhibition). How it is done: Maize sprouts placed onto an agar layer in 24-well microtiter plates were treated with aqueous test solutions prepared from 10′000 ppm DMSO stock solutions by spraying. After drying, the plates were infested with L2 larvae (6 to 10 per well). The samples were assessed for mortality and growth inhibition in comparison to untreated samples 4 days after infestation.

The test system of data set [5] is Myzus persicae (Green Peach Aphid). The data set is described as follows: Activity against Myzus persicae (green peach aphid): systemic activity. As to conditions: for mortality at 24 ppm: Myzus persicae, 144 h, test rate 24 ppm, systemic, pea seedling roots in test solution, 6 days. How it is done:
Roots of pea seedlings infested with an aphid population of mixed ages were placed directly into aqueous test solutions prepared from 10′000 DMSO stock solutions. The samples were assessed for mortality 6 days after placing seedlings into test solutions.

Data set [6] concerns Bemisia tabaci (Cotton White Fly). The data set is described as follows: Activity against Bemisia tabaci (cotton white fly). As to conditions: 144 h, application rate 200 ppm, adult white flies, 6 days after incubation. How it is done:
Cotton leaf discs were placed on agar in 24-well microtiter plates and sprayed with aqueous test solutions prepared from 10′000 ppm DMSO stock solutions. After drying the leaf discs were infested with adult white flies. The samples were checked for mortality 6 days after incubation.

The test system of data set [7] is Euschistus heros (Neotropical Brown Stink Bug). The data set is described as follows: Activity against Euschistus heros (neotropical brown stink bug), soybean leaves sprayed. As to conditions: 120 h, application rate 200 ppm, N2 nymphs, 5 days after infestation, read-out: effect in at least one of the two categories (mortality or growth inhibition). On the procedure: Soybean leaves on agar in 24-well microtiter plates were sprayed with aqueous test solutions prepared from 10′000 ppm DMSO stock solutions. After drying the leaves were infested with N2 nymphs. The samples were assessed for mortality and growth inhibition in comparison to untreated samples 5 days after infestation.

`CCSc1cccnc1-c1nc2cc(C(F)(F)F)n(OC)c(=O)c2n1C` [Compound A1, 2-(3-ethylsulfanyl-2-pyridyl)-5-methoxy-3-methyl-6-(trifluoromethyl) imidazo[4,5-c]pyridin-4-one] yielded a mortality at 200 ppm in data set [1] not below 80%. Besides, the percent control (mortality, anti-feedant effect or growth inhibition) at 200 ppm in data set [2] is not below 80%. The percent effect (mortality or growth inhibition) at 200 ppm in data set [3] and in data set [4] was not below 80% throughout.

For the compound `CCS(=O)(=O)c1ccc(-n2ccnn2)nc1-c1nc2cc(C(F)(F)F)n(OC)c(=O)c2n1C` [Compound A4, 2-[3-ethylsulfonyl-6-(triazol-1-yl)-2-pyridyl]-5-methoxy-3-methyl-6-(trifluoromethyl)imidazo[4,5-c]pyridin-4-one], the mortality at 200 ppm in data set [1] and in data set [6] was not below 80% in each case. In addition, the percent control (mortality, anti-feedant effect or growth inhibition) at 200 ppm in data set [2] was not below 80%. This compound displayed a mortality at 24 ppm in data set [5] not below 80%. Moreover, the percent effect (mortality or growth inhibition) at 200 ppm in data set [3], in data set [4] and in data set [7] was not below 80% throughout.

The compound `CCS(=O)(=O)c1ccc(-n2nccn2)nc1-c1nc2cc(C(F)(F)F)n(OC)c(=O)c2n1C` [Compound A5, 2-[3-ethylsulfonyl-6-(triazol-2-yl)-2-pyridyl]-5-methoxy-3-methyl-6-(trifluoromethyl)imidazo[4,5-c]pyridin-4-one] returned a mortality at 200 ppm in data set [1] not below 80%. In data set [2], the percent control (mortality, anti-feedant effect or growth inhibition) at 200 ppm is not below 80%. The mortality at 24 ppm in data set [5] is not below 80%. The percent effect (mortality or growth inhibition) at 200 ppm in data set [3], in data set [4] and in data set [7] was not below 80% in each case.

Compound `CCS(=O)(=O)c1cc(C(F)(F)F)cnc1-c1nc2cc(C(F)(F)F)n(OC)c(=O)c2n1C` [Compound A6, 2-[3-ethylsulfonyl-5-(trifluoromethyl)-2-pyridyl]-5-methoxy-3-methyl-6-(trifluoromethyl)imidazo[4,5-c]pyridin-4-one] showed a mortality at 200 ppm in data set [1] not below 80%. Further, in data set [2], the percent control (mortality, anti-feedant effect or growth inhibition) at 200 ppm is not below 80%. The same compound returned a mortality at 24 ppm in data set [5] not below 80%. The percent effect (mortality or growth inhibition) at 200 ppm in data set [3], in data set [4] and in data set [7] was not below 80% each time.

As to `CCS(=O)(=O)c1ccccc1-c1nc2cc(C(F)(F)F)n(OC)c(=O)c2n1C` [Compound A7, 2-(2-ethylsulfonylphenyl)-5-methoxy-3-methyl-6-(trifluoromethyl)imidazo[4,5-c]pyridin-4-one], the mortality at 200 ppm in data set [1] was not below 80%. Further, the percent control (mortality, anti-feedant effect or growth inhibition) at 200 ppm in data set [2] was not below 80%. The same compound returned a mortality at 24 ppm in data set [5] not below 80%. Moreover, the percent effect (mortality or growth inhibition) at 200 ppm in data set [3], in data set [4] and in data set [7] was not below 80% each time.

With `CCS(=O)(=O)c1cc(C(C)(C)C#N)ccc1-c1nc2cc(C(F)(F)F)n(OC)c(=O)c2n1C` [Compound A15, 2-[3-ethylsulfonyl-4-[5-methoxy-3-methyl-4-oxo-6-(trifluoromethyl)imidazo[4,5-c]pyridin-2-yl]phenyl]-2-methyl-propanenitrile], the mortality at 200 ppm in data set [1] and in data set [6] was not below 80% each time. In data set [5], this compound gave a mortality at 24 ppm not below 80%. Moreover, the percent effect (mortality or growth inhibition) at 200 ppm in data set [3], in data set [4] and in data set [7] was not below 80% throughout.

In turn, `CCS(=O)(=O)c1cc(Br)c(N)nc1-c1nc2cc(C(F)(F)F)n(OC)c(=O)c2n1C` [Compound A16, 2-(6-amino-5-bromo-3-ethylsulfonyl-2-pyridyl)-5-methoxy-3-methyl-6-(trifluoromethyl)imidazo[4,5-c]pyridin-4-one] displayed a mortality at 200 ppm in data set [1] not below 80%. For the same compound, the percent control (mortality, anti-feedant effect or growth inhibition) at 200 ppm in data set [2] was not below 80%. The percent effect (mortality or growth inhibition) at 200 ppm in data set [3], in data set [4] and in data set [7] was not below 80% in each case.

For `CCSc1cc(Br)cnc1-c1nc2cc(C(F)(F)F)n(OC)c(=O)c2n1C` [Compound A19, 2-(5-bromo-3-ethylsulfanyl-2-pyridyl)-5-methoxy-3-methyl-6-(trifluoromethyl)imidazo[4,5-c]pyridin-4-one], the mortality at 200 ppm in data set [1] is not below 80%. The percent control (mortality, anti-feedant effect or growth inhibition) at 200 ppm in data set [2] was not below 80%. The percent effect (mortality or growth inhibition) at 200 ppm in data set [3], in data set [4] and in data set [7] was not below 80% throughout.

In turn, `CCSc1cc(C(F)(F)F)cnc1-c1nc2cc(C(F)(F)F)n(OC)c(=O)c2n1C` [Compound A21, 2-[3-ethylsulfanyl-5-(trifluoromethyl)-2-pyridyl]-5-methoxy-3-methyl-6-(trifluoromethyl)imidazo[4,5-c]pyridin-4-one] showed a mortality at 200 ppm in data set [1] not below 80%. Moreover, the percent control (mortality, anti-feedant effect or growth inhibition) at 200 ppm in data set [2] is not below 80%. The percent effect (mortality or growth inhibition) at 200 ppm in data set [3], in data set [4] and in data set [7] was not below 80% throughout.

`CCSc1ccccc1-c1nc2cc(C(F)(F)F)n(OC)c(=O)c2n1C` [Compound A22, 2-(2-ethylsulfanylphenyl)-5-methoxy-3-methyl-6-(trifluoromethyl)imidazo[4,5-c]pyridin-4-one]: the mortality at 200 ppm in data set [1] was not below 80%. The percent control (mortality, anti-feedant effect or growth inhibition) at 200 ppm in data set [2] is not below 80%. Besides, in data set [5], the mortality at 24 ppm was not below 80%. Besides, the percent effect (mortality or growth inhibition) at 200 ppm in data set [3], in data set [4] and in data set [7] was not below 80% throughout.

Turning to `CCSc1cc(C2(C#N)CC2)ccc1-c1nc2cc(C(F)(F)F)n(OC)c(=O)c2n1C` [Compound A23, 1-[3-ethylsulfanyl-4-[5-methoxy-3-methyl-4-oxo-6-(trifluoromethyl)imidazo[4,5-c]pyridin-2-yl]phenyl]cyclopropanecarbonitrile], in data set [2], the percent control (mortality, anti-feedant effect or growth inhibition) at 200 ppm is not below 80%. In addition, the percent effect (mortality or growth inhibition) at 200 ppm in data set [3], in data set [4] and in data set [7] was not below 80% throughout.

As to `CCSc1cc(C(C)(C)C#N)cnc1-c1nc2cc(C(F)(F)F)n(OC)c(=O)c2n1C` [Compound A24, 2-[5-ethylsulfanyl-6-[5-methoxy-3-methyl-4-oxo-6-(trifluoromethyl)imidazo[4,5-c]pyridin-2-yl]-3-pyridyl]-2-methyl-propanenitrile], the percent effect (mortality or growth inhibition) at 200 ppm in data set [3], in data set [4] and in data set [7] was not below 80% each time.

Regarding `CCSc1cc(C(C)(C)C#N)ccc1-c1nc2cc(C(F)(F)F)n(OC)c(=O)c2n1C` [Compound A25, 2-[3-ethylsulfanyl-4-[5-methoxy-3-methyl-4-oxo-6-(trifluoromethyl)imidazo[4,5-c]pyridin-2-yl]phenyl]-2-methyl-propanenitrile], the percent effect (mortality or growth inhibition) at 200 ppm in data set [4] and in data set [7] was not below 80% each time.

In the case of `CCS(=O)(=O)c1cccnc1-c1nc2cc(C(F)(F)F)n(OC)c(=O)c2n1C` [drawing 144, reference compound], the “Mortality (%)” value came to 50% in data set [1] (Myzus persicae (feeding/contact), concentration 50 ppm); 0% in data set [2] (concentration 12.5 ppm); 0% in data set [5] (Myzus persicae (systemic), concentration 1.5 ppm); 0% in data set [3] (concentration 12.5 ppm); 0% in data set [4] (concentration 50 ppm).
